Drawing on patent publication US20120172384A1, “HETEROCYCLYLAMINOPYRIMIDINES AS KINASE INHIBITORS” (priority 2009, published 2012), this text covers IC50 for 22 compounds.

SMILES strings stand for the structures. pIC50: −log10 of the molar value. Several values for one entry are separate records, joined by “and”; a condition that tells them apart may be missing. Identical values can stand only once.

One experiment addresses T1, ZAP-70 (Homo sapiens, UniProt P43403).
T1 construct: endogenous in cells
T1 sequence (P43403 1-619): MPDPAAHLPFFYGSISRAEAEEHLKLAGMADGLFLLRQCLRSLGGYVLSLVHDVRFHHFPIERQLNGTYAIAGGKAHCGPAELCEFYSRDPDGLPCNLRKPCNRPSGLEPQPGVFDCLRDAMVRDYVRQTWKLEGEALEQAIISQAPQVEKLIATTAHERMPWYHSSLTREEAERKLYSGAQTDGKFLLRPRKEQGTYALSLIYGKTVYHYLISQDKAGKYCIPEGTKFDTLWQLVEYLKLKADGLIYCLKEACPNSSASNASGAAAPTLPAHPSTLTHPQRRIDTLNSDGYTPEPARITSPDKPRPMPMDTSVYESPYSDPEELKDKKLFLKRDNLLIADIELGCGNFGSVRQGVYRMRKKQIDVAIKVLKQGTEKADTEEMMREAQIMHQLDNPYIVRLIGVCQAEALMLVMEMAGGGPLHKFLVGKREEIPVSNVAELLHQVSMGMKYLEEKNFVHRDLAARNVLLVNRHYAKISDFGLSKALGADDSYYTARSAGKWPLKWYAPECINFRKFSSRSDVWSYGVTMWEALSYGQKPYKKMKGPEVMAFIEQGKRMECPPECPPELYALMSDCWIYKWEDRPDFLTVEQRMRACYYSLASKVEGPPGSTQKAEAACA
The experiment is described as follows: ZAP-70 kinobeads assay. The note with it: cell lysate, dot blot with ZAP-70 antibody. The class given is binding. The procedure:
(§1) The compounds of the present invention as described in the previous examples were tested in the ZAP-70 kinobeads assay as described (EP-A 1862802 and WO-A 2007/137867). Briefly, test compounds (at various concentrations) and the affinity matrix with the immobilized aminopyrido-pyrimidine ligand 24 are added to cell lysate aliquots and allowed to bind to the proteins in the lysate sample. After the incubation time the beads with captured proteins are separated from the lysate. Bound proteins are then eluted and the presence ZAP-70 is detected and quantified using a specific antibody in a dot blot procedure and the Odyssey infrared detection system.

In a further experiment the target is T2, JAK3 (Homo sapiens, UniProt P52333).
T2 construct: endogenous in cells
T2 sequence (P52333 1-1124): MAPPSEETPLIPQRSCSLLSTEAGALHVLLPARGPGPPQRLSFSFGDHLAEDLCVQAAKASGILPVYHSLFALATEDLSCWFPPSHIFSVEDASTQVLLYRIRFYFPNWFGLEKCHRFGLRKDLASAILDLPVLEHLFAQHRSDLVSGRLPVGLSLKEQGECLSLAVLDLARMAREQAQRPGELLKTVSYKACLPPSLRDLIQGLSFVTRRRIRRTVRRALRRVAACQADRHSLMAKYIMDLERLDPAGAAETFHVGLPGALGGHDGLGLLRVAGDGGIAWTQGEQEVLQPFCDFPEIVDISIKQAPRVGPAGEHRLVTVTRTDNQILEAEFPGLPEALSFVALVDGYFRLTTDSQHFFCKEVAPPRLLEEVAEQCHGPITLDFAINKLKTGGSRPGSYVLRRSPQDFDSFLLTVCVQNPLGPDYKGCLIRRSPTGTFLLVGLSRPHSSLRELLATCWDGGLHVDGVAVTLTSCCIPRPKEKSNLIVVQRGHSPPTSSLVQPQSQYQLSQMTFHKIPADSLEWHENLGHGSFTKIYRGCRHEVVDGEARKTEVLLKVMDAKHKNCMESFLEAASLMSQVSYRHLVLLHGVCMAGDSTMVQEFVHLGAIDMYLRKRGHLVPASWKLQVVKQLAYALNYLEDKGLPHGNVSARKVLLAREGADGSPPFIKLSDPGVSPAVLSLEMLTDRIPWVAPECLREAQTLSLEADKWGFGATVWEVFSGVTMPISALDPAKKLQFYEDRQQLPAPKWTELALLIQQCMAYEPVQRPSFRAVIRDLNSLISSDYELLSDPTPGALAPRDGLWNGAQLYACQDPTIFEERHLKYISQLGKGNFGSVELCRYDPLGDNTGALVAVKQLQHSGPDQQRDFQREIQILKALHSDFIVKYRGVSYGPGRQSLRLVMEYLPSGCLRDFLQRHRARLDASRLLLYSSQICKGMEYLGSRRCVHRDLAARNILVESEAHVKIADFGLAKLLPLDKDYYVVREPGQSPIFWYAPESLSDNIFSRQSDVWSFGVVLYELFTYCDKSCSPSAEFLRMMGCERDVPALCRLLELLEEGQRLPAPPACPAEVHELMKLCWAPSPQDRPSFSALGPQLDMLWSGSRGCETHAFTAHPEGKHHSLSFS
Kind of experiment: JAK3 kinobeads assay. The class given is binding. Particulars: cell lysate, dot blot with JAK3 specific antibody. The procedure: as §1
Compounds were tested by the procedure described in Example 102 but using a JAK3 specific antibody (Cell Signaling Technology, Inc., Danvers, US, catalogue number 3775) instead of a ZAP70 antibody.

As for `Cc1nn(C)cc1Nc1ncc(Cl)c(Nc2ccccc2NS(C)(=O)=O)n1` [Example 35, N-(2-(5-chloro-2-(1,3-dimethyl-1H-pyrazol-4-ylamino)pyrimidin-4-ylamino)phenyl)methanesulfonamide], the pIC50 against ZAP-70 and against JAK3 was not below 7.00 in each case. In the case of `CS(=O)(=O)Nc1ccccc1Nc1nc(Nc2ccon2)ncc1Cl` [Example 38, N-(2-(5-chloro-2-(isoxazol-3-ylamino)pyrimidin-4-ylamino)phenyl)methanesulfonamide], the pIC50 was 5.00 to 6.00 at ZAP-70 and not below 7.00 against JAK3. On the same counts, the results for `COc1ccc(Nc2nc(Nc3nonc3C)ncc2Cl)c(NS(C)(=O)=O)c1` [Example 31, N-(2-(5-chloro-2-(4-methyl-1,2,5-oxadiazol-3-ylamino)pyrimidin-4-ylamino)-5-methoxyphenyl)methanesulfonamide] are 5.00 to 6.00 and 5.00 to 6.00. For `CCn1nccc1Nc1ncc(Cl)c(Nc2ccc(OC)cc2NS(C)(=O)=O)n1` [Example 29, N-(2-(5-chloro-2-(1-ethyl-1H-pyrazol-5-ylamino)pyrimidin-4-ylamino)-5-methoxyphenyl)methanesulfonamide], the pIC50 against ZAP-70 is 6.00 to 7.00; on JAK3, 5.00 to 6.00.

For `COc1ccc(Nc2nc(Nc3c(C)nn(C)c3C)ncc2Cl)c(NS(C)(=O)=O)c1` [Example 13, N-(2-(5-chloro-2-(1,3,5-trimethyl-1H-pyrazol-4-ylamino)pyrimidin-4-ylamino)-5-methoxyphenyl)methanesulfonamide], the pIC50 against ZAP-70 is 6.00 to 7.00; against JAK3, 5.00 to 6.00. With `CCn1cc(Nc2ncc(Cl)c(Nc3ccc(OC)cc3NS(C)(=O)=O)n2)c(C)n1` [Example 28, N-(2-(5-chloro-2-(1-ethyl-3-methyl-1H-pyrazol-4-ylamino)pyrimidin-4-ylamino)-5-methoxyphenyl)methanesulfonamide], the pIC50 was 6.00 to 7.00 on ZAP-70 and not below 7.00 against JAK3. On to `COc1ccc(Nc2nc(Nc3cn(C)nc3C)ncc2Cl)c(NS(C)(=O)=O)c1` [Example 18, N-(2-(5-chloro-2-(1,3-dimethyl-1H-pyrazol-4-ylamino)pyrimidin-4-ylamino)-5-methoxyphenyl)methanesulfonamide], for which the pIC50 at ZAP-70 and against JAK3 was not below 7.00 in each case. Regarding `CC(C)n1ccc(Nc2ncc(Cl)c(Nc3ccccc3NS(C)(=O)=O)n2)n1` [Example 40, N-(2-(5-chloro-2-(1-isopropyl-1H-pyrazol-3-ylamino)pyrimidin-4-ylamino)phenyl)methanesulfonamide], the values for the pIC50 against ZAP-70 and at JAK3 were 6.00 to 7.00 and not below 7.00, respectively. On to `COc1ccc(Nc2nc(Nc3ccn(C)n3)ncc2Cl)c(NS(C)(=O)=O)c1` [Example 4, N-(2-(5-chloro-2-(1-methyl-1H-pyrazol-3-ylamino)pyrimidin-4-ylamino)-5-methoxyphenyl)methanesulfonamide], for which the pIC50 on ZAP-70 is 6.00 to 7.00; against JAK3, 6.00 to 7.00 and ≥ 7.00. In the case of `COc1ccc(Nc2nc(Nc3cc(C(C)C)nn3C)ncc2Cl)c(NS(C)(=O)=O)c1` [Example 11, N-(2-(5-chloro-2-(3-isopropyl-1-methyl-1H-pyrazol-5-ylamino)pyrimidin-4-ylamino)-5-methoxyphenyl)methanesulfonamide], the pIC50 on ZAP-70 and against JAK3 was 6.00 to 7.00 throughout. For `Cn1cc(Nc2ncc(F)c(Nc3ccccc3NS(C)(=O)=O)n2)cn1` [Example 22, N-(2-(5-fluoro-2-(1-methyl-1H-pyrazol-4-ylamino)pyrimidin-4-ylamino)phenyl)methanesulfonamide], the pIC50 against ZAP-70 is 6.00 to 7.00; at JAK3, not below 7.00. On the same counts, the results for `Cn1cc(Nc2ncc(Br)c(Nc3ccccc3NS(C)(=O)=O)n2)cn1` [Example 41, N-(2-(5-bromo-2-(1-methyl-1H-pyrazol-4-ylamino)pyrimidin-4-ylamino)phenyl)methanesulfonamide] are 6.00 to 7.00 and not below 7.00. `CS(=O)(=O)Nc1ccccc1Nc1nc(Nc2cnoc2)ncc1Cl` [Example 44, N-(2-((5-chloro-2-(isoxazol-4-ylamino)pyrimidin-4-yl)amino)phenyl)methanesulfonamide]: the pIC50 was 5.00 to 6.00 against ZAP-70 and 6.00 to 7.00 on JAK3. At ZAP-70, `CCCn1nc(C)cc1Nc1ncc(Cl)c(Nc2ccc(OC)cc2NS(C)(=O)=O)n1` [Example 69, N-(2-((5-chloro-2-((3-methyl-1-propyl-1H-pyrazol-5-yl)amino)pyrimidin-4-yl)amino)-5-methoxyphenyl)methanesulfonamide] had a pIC50 not below 7.00. Compound `COc1ccc(Nc2nc(Nc3cc(C)nn3CC(C)C)ncc2Cl)c(NS(C)(=O)=O)c1` [Example 95, N-(2-((5-chloro-2-((1-isobutyl-3-methyl-1H-pyrazol-5-yl)amino)pyrimidin-4-yl)amino)-5-methoxyphenyl)methanesulfonamide] had a pIC50 at ZAP-70 of 6.00 to 7.00.

The compound `CCn1ncc(C)c1Nc1ncc(Cl)c(Nc2ccc(OC)cc2NS(C)(=O)=O)n1` [Example 26, N-(2-(5-chloro-2-(1-ethyl-4-methyl-1H-pyrazol-5-ylamino)pyrimidin-4-ylamino)-5-methoxyphenyl)methanesulfonamide] had a pIC50 on ZAP-70 of 5.00 to 6.00. The same measure, in the same setting: under `COc1ccc(Nc2nc(Nc3cc(C)nn3C(C)C)ncc2Cl)c(NS(C)(=O)=O)c1` [Example 71, N-(2-((5-chloro-2-((1-isopropyl-3-methyl-1H-pyrazol-5-yl)amino)pyrimidin-4-yl)amino)-5-methoxyphenyl)methanesulfonamide] stands 6.00 to 7.00; under `CCCCn1nccc1Nc1ncc(Cl)c(Nc2ccc(OC)cc2NS(C)(=O)=O)n1` [Example 87, N-(2-((2-((1-butyl-1H-pyrazol-5-yl)amino)-5-chloropyrimidin-4-yl)amino)-5-methoxyphenyl)methanesulfonamide], 6.00 to 7.00; under `CCc1nn(C)c(Nc2ncc(Cl)c(Nc3ccc(OC)cc3NS(C)(=O)=O)n2)c1C` [Example 15, N-(2-(5-chloro-2-(3-ethyl-1,4-dimethyl-1H-pyrazol-5-ylamino)pyrimidin-4-ylamino)-5-methoxyphenyl)methanesulfonamide], 5.00 to 6.00.

`COc1ccc(Nc2nc(Nc3ccnn3C(C)C)ncc2Cl)c(NS(C)(=O)=O)c1` [Example 68, N-(2-((5-chloro-2-((1-isopropyl-1H-pyrazol-5-yl)amino)pyrimidin-4-yl)amino)-5-methoxyphenyl)methanesulfonamide] had a pIC50 at ZAP-70 of 6.00 to 7.00.

Turning to `COc1ccc(Nc2nc(Nc3c(C)cnn3C)ncc2Cl)c(NS(C)(=O)=O)c1` [Example 14, N-(2-(5-chloro-2-(1,4-dimethyl-1H-pyrazol-5-ylamino)pyrimidin-4-ylamino)-5-methoxyphenyl)methanesulfonamide], at ZAP-70, the pIC50 is 5.00 to 6.00.

On ZAP-70, `COc1ccc(Nc2nc(Nc3cc(C)nn3C(C)C3CC3)ncc2Cl)c(NS(C)(=O)=O)c1` (centres unmarked) [Example 88, N-(2-((5-chloro-2-((1-(1-cyclopropylethyl)-3-methyl-1H-pyrazol-5-yl)amino)pyrimidin-4-yl)amino)-5-methoxyphenyl)methanesulfonamide] showed a pIC50 of 5.00 to 6.00.
